Experimental data reported in patent US20230210999A1, “TARGETED PROTEASE DEGRADATION (TED) PLATFORM” (EUBULUS BIOTHERAPEUTICS INC., priority 2020, published 2023).
Like-named read-outs stand apart in the source and are kept apart here.

How the values were obtained:
Assay type in all cases: cell-based, human
MV4;11 cells = experiment: Cell proliferation experiment (Alamar blue, 72 h), MV4;11; settings: Homo sapiens
Method: (§1) Reagents: RPMI-1640 medium, McCoy's 5A medium, IMDM medium, MEM medium, L-15 medium, fetal bovine serum. Penicillin-Streptomycin double antibody, trypsin, etc., 2-mercaptoethanol, NEAA, pyruvate, etc.
(§2) The cells were cultured in conventional ways, and the cells should be passed at least 2 generations before plating. Cells at the logarithmic growth phase were collected, prepared into single cell suspensions and counted. The concentration of cells was adjusted to the desired concentration, and cells were inoculated into a 96-well cell culture plate at 100 μl per well. 100 μL of complete medium of the test compound were added to each well, set up 2 duplicate wells for each concentration, and diluted with a 5-fold gradient, and continued to culture for 72 h. All cells were subjected to IC50 test for corresponding samples. The experimental results are shown in Test Example 4.
(§3) The fluorescence intensity of each well was detected using the Alarm blue method, and IC50 was calculated.
(§4) IC50 was calculated according to the following formula:
(§5) Y=Max+(Min−Max)/[1+(X/IC50)×Slope]
(§6) wherein Min, Max and Slope represent the minimum, maximum and slope respectively.

Daudi cells = experiment: Cell proliferation experiment, Daudi; settings: Homo sapiens, Daudi, Daudi cells; read-out: Inhibitory activity IC50 on Daudi
Method: as §1, §2, §3, §4, §5, §6

NCIH82 cells = experiment: Cell proliferation experiment, NCI-H82; settings: Homo sapiens, NCI-H82, NCI-H82 cells; read-out: Inhibitory activity IC50 on NCI-H82
Method: as §1, §2, §3, §4, §5, §6

[1] = MV4-11, MV4;11 cells, read-out: Inhibitory activity IC50 on MV4;11

SMILES | IC50 (MV4;11 cells; MV4-11, 72 h, MV4;11 cells, 72 h, read-out: Inhibitory activity IC50 of tested compounds on MV4;11 cells) [µM] | IC50 (Daudi cells) [µM] | IC50 (MV4;11 cells; [1]) [µM] | IC50 (NCIH82 cells) [µM]
O=C1CCC(N2Cc3c(C#CCNCCOCCOCCOCCNC(=O)[C@H]4CC[C@H](Oc5cccc(Cl)c5F)CC4Cc4cccc(Nc5nccs5)n4)cccc3C2=O)C(=O)N1 (some centres unmarked) [Compound 860] | > 1 | – | – | –
O=C1CCC(N2Cc3cc(NC(=O)CCOCCOCCOCCNC(=O)[C@]4(Cc5cccc(Nc6nccs6)n5)CC[C@@H](Oc5cccc(Cl)c5F)CC4)ccc3C2=O)C(=O)N1 (some centres unmarked) [UB-180948] | – | > 1 | 0.01 to 0.1 | > 1
CCNC(=O)C#Cc1ccc2c(c1)NC(=O)/C2=C(\Nc1ccc(CNCCOCCOCCOCCOCC(=O)N[C@H](C(=O)N2C[C@H](O)C[C@H]2C(=O)NCc2ccc(-c3scnc3C)cc2)C(C)(C)C)cc1)c1ccccc1 [UB-180958] | – | > 1 | 0.1 to 1 | > 1
O=C1CCC(N2Cc3c(NC(=O)CCOCCOCCN[C@H]4CC[C@@H](NC(=O)c5ccc(Nc6ncc7c(n6)-c6ccc(Cl)cc6C(c6c(F)cccc6F)=NC7)cc5)CC4)cccc3C2=O)C(=O)N1 (some centres unmarked) [UB-180959] | – | > 1 | 0.1 to 1 | > 1
O=C1CCC(N2Cc3cc(NC(=O)CCOCCOCCN[C@H]4CC[C@@H](NC(=O)c5ccc(Nc6ncc7c(n6)-c6ccc(Cl)cc6C(c6c(F)cccc6F)=NC7)cc5)CC4)ccc3C2=O)C(=O)N1 (some centres unmarked) [UB-180960] | – | > 1 | 0.1 to 1 | > 1
CCNC(=O)C#Cc1ccc2c(c1)NC(=O)/C2=C(\Nc1ccc(CNCCOCCOCCOCCOCC(=O)Nc2cccc3c2CN(C2CCC(=O)NC2=O)C3=O)cc1)c1ccccc1 (centres unmarked) [UB-180962] | – | > 1 | 0.1 to 1 | > 1
CCNC(=O)C#Cc1ccc2c(c1)NC(=O)/C2=C(\Nc1ccc(CNCCOCCOCCOCCOCC(=O)Nc2ccc3c(c2)CN(C2CCC(=O)NC2=O)C3=O)cc1)c1ccccc1 (centres unmarked) [UB-180963] | – | > 1 | 0.01 to 0.1 | > 1
CCNC(=O)C#Cc1ccc2c(c1)NC(=O)/C2=C(\Nc1ccc(CNCCOCCOCCC(=O)Nc2cccc3c2CN(C2CCC(=O)NC2=O)C3=O)cc1)c1ccccc1 (centres unmarked) [UB-180964] | – | > 1 | 0.1 to 1 | > 1
O=C1CCC(N2Cc3cc(C#CCCNCCOCCOCCOCCn4cc(-c5ccc(Nc6ncc7c(n6)-c6ccc(Cl)cc6C(c6c(F)cccc6F)=NC7)cc5)nn4)ccc3C2=O)C(=O)N1 (centres unmarked) [UB-180965] | – | > 1 | 0.1 to 1 | 0.1 to 1
O=C1CCC(N2Cc3c(C#CCCOCCN[C@H]4CC[C@@H](n5cc(-c6ccc(Nc7ncc8c(n7)-c7ccc(Cl)cc7C(c7c(F)cccc7F)=NC8)cc6)nn5)CC4)cccc3C2=O)C(=O)N1 (some centres unmarked) [UB-180966] | – | > 1 | > 1 | > 1
CCNC(=O)C#Cc1ccc2c(c1)NC(=O)/C2=C(\Nc1ccc(CNCCOCCOCCOCCC(=O)N[C@H](C(=O)N2C[C@H](O)C[C@H]2C(=O)NCc2ccc(-c3scnc3C)cc2)C(C)(C)C)cc1)c1ccccc1 [UB-180970] | – | > 1 | 0.1 to 1 | > 1
CCNC(=O)C#Cc1ccc2c(c1)NC(=O)/C2=C(\Nc1ccc(CNCCOCCOCCOCCC(=O)Nc2cccc3c2CN(C2CCC(=O)NC2=O)C3=O)cc1)c1ccccc1 (centres unmarked) [UB-180971] | – | > 1 | 0.1 to 1 | > 1
O=C1CCC(N2Cc3cc(C#CCCNCCOCCOCCOCCn4cc([C@]5(Cc6cccc(Nc7nccs7)n6)CC[C@@H](Oc6cccc(Cl)c6F)CC5)nn4)ccc3C2=O)C(=O)N1 (some centres unmarked) [UB-180973] | – | > 1 | 0.1 to 1 | > 1
O=C1CCC(N2Cc3c(C#CCCNCCOCCOCCOCCn4cc(-c5ccc(Nc6ncc7c(n6)-c6ccc(Cl)cc6C(c6c(F)cccc6F)=NC7)cc5)nn4)cccc3C2=O)C(=O)N1 (centres unmarked) [UB-180974] | – | > 1 | 0.1 to 1 | > 1
O=C1CCC(N2Cc3c(C#CCCOCCN[C@H]4CC[C@H](n5cc(-c6ccc(Nc7ncc8c(n7)-c7ccc(Cl)cc7C(c7c(F)cccc7F)=NC8)cc6)nn5)CC4)cccc3C2=O)C(=O)N1 (some centres unmarked) [UB-180975] | – | > 1 | > 1 | > 1
NC(=O)c1ccccc1Nc1nc(Nc2ccc(C3CCN(C(=O)NCCCNCCCC#Cc4ccc5c(c4)CN(C4CCC(=O)NC4=O)C5=O)CC3)cc2)ncc1Cl (centres unmarked) [UB-181207] | – | > 1 | – | > 1

Second part, the molecule after the results:

IC50 (MV4;11 cells; MV4-11, 72 h, MV4;11 cells, 72 h, read-out: Inhibitory activity IC50 of tested compounds on MV4;11 cells) [µM] | IC50 (Daudi cells) [µM] | IC50 (MV4;11 cells; [1]) [µM] | IC50 (NCIH82 cells) [µM] | SMILES
– | 0.01 to 0.1 | 0.01 to 0.1 | – | CC[C@@H]1C(=O)N(C)c2cnc(Nc3ccc(-c4cn(CCCOCCCNCCC#Cc5cccc6c5CN(C5CCC(=O)NC5=O)C6=O)nn4)cc3OC)nc2N1C1CCCC1 (some centres unmarked) [UB-180938]
– | > 1 | 0.1 to 1 | > 1 | O=C1CCC(N2Cc3c(C#CCCNCCOCCn4cc(-c5ccc(Nc6ncc7c(n6)-c6ccc(Cl)cc6C(c6c(F)cccc6F)=NC7)cc5)nn4)cccc3C2=O)C(=O)N1 (centres unmarked) [UB-180944]
– | > 1 | 0.1 to 1 | > 1 | O=C1CCC(N2Cc3c(NC(=O)CNCCOCCN4CCC(n5cc(-c6ccc(Nc7ncc8c(n7)-c7ccc(Cl)cc7C(c7c(F)cccc7F)=NC8)cc6)nn5)CC4)cccc3C2=O)C(=O)N1 (centres unmarked) [UB-180945]
– | > 1 | 0.1 to 1 | 0.1 to 1 | O=C1CCC(N2Cc3c(C#CCCNCCCOCCCn4cc(-c5ccc(Nc6ncc7c(n6)-c6ccc(Cl)cc6C(c6c(F)cccc6F)=NC7)cc5)nn4)cccc3C2=O)C(=O)N1 (centres unmarked) [UB-180946]
– | 0.1 to 1 | 0.01 to 0.1 | > 1 | O=C1CCC(N2Cc3cc(NC(=O)CCOCCOCCOCCNC(=O)c4ccc(Nc5ncc6c(n5)-c5ccc(Cl)cc5C(c5c(F)cccc5F)=NC6)cc4)ccc3C2=O)C(=O)N1 (centres unmarked) [UB-180947]
– | > 1 | 0.1 to 1 | 0.1 to 1 | CCNC(=O)C#Cc1ccc2c(c1)NC(=O)/C2=C(\Nc1ccc(CNCCOCCOCCC(=O)N[C@H](C(=O)N2C[C@H](O)C[C@H]2C(=O)NCc2ccc(-c3scnc3C)cc2)C(C)(C)C)cc1)c1ccccc1 [UB-180951]
– | > 1 | > 1 | > 1 | CCNC(=O)C=C(Cl)c1ccc2c(c1)NC(=O)/C2=C(\Nc1ccc(CNCCOCCOCCOCCOCCC(=O)Nc2cccc3c2CN(C2CCC(=O)NC2=O)C3=O)cc1)c1ccccc1 (centres unmarked) [UB-180952]
– | > 1 | 0.1 to 1 | > 1 | O=C1CCC(N2Cc3cc(NC(=O)CNCCOCCOCCOCCNC(=O)[C@]4(Cc5cccc(Nc6nccs6)n5)CC[C@@H](Oc5cccc(Cl)c5F)CC4)ccc3C2=O)C(=O)N1 (some centres unmarked) [UB-180953]
– | > 1 | 0.1 to 1 | > 1 | O=C1CCC(N2Cc3cc(NC(=O)CNCCOCCOCCOCCNC(=O)c4ccc(Nc5ncc6c(n5)-c5ccc(Cl)cc5C(c5c(F)cccc5F)=NC6)cc4)ccc3C2=O)C(=O)N1 (centres unmarked) [UB-180954]
– | > 1 | 0.1 to 1 | > 1 | CCNC(=O)C#Cc1ccc2c(c1)NC(=O)/C2=C(\Nc1ccc(CNCCOCCOCCOCCOCCC(=O)N[C@H](C(=O)N2C[C@H](O)C[C@H]2C(=O)NCc2ccc(-c3scnc3C)cc2)C(C)(C)C)cc1)c1ccccc1 [UB-180955]
– | > 1 | 0.1 to 1 | > 1 | CCNC(=O)C#Cc1ccc2c(c1)NC(=O)/C2=C(\Nc1ccc(CNCCOCCOCCOCCOCCC(=O)Nc2cccc3c2CN(C2CCC(=O)NC2=O)C3=O)cc1)c1ccccc1 (centres unmarked) [UB-180956]
– | 0.1 to 1 | 0.1 to 1 | > 1 | CCNC(=O)C#Cc1ccc2c(c1)NC(=O)/C2=C(\Nc1ccc(CNCCOCCOCCC(=O)Nc2ccc3c(c2)CN(C2CCC(=O)NC2=O)C3=O)cc1)c1ccccc1 (centres unmarked) [UB-180967]
– | 0.1 to 1 | < 0.01 | – | CC[C@@H]1C(=O)N(C)c2cnc(Nc3ccc(-c4nnc(C5CCC(NCCOCCC#Cc6cccc7c6CN(C6CCC(=O)NC6=O)C7=O)CC5)o4)cc3OC)nc2N1C1CCCC1 (some centres unmarked) [UB-180968]
– | 0.1 to 1 | 0.01 to 0.1 | – | CC[C@@H]1C(=O)N(C)c2cnc(Nc3ccc(-c4cn(CCOCCOC[C@@H](N)CC#Cc5cccc6c5CN(C5CCC(=O)NC5=O)C6=O)nn4)cc3OC)nc2N1C1CCCC1 (some centres unmarked) [UB-180969]
– | 0.1 to 1 | 0.01 to 0.1 | 0.1 to 1 | CCNC(=O)C#Cc1ccc2c(c1)NC(=O)/C2=C(\Nc1ccc(CNCCOCCOCCOCCC(=O)Nc2ccc3c(c2)CN(C2CCC(=O)NC2=O)C3=O)cc1)c1ccccc1 (centres unmarked) [UB-180972]
– | 0.01 to 0.1 | < 0.01 | – | CC[C@@H]1C(=O)N(C)c2cnc(Nc3ccc(-c4cn([C@H]5CC[C@@H](NCCCCCC#Cc6ccc7c(c6)CN(C6CCC(=O)NC6=O)C7=O)CC5)nn4)cc3OC)nc2N1C1CCCC1 (some centres unmarked) [UB-180984]
– | < 0.01 | < 0.01 | – | CC[C@@H]1C(=O)N(C)c2cnc(Nc3ccc(C(=O)N[C@H]4CC[C@@H](NCCCCCC#Cc5ccc6c(c5)CN(C5CCC(=O)NC5=O)C6=O)CC4)cc3OC)nc2N1C1CCCC1 (some centres unmarked) [UB-180985]
– | 0.1 to 1 | – | 0.1 to 1 | NC(=O)c1ccccc1Nc1nc(Nc2ccc(C3CCN(C(=O)NCCCCNCCC#Cc4ccc5c(c4)CN(C4CCC(=O)NC4=O)C5=O)CC3)cc2)ncc1Cl (centres unmarked) [UB-181206]
– | 0.01 to 0.1 | – | 0.1 to 1 | NC(=O)c1ccccc1Nc1nc(Nc2ccc(N3CCN(C(=O)NCCCCNCCC#Cc4ccc5c(c4)CN(C4CCC(=O)NC4=O)C5=O)CC3)cc2)ncc1Cl (centres unmarked) [UB-181208]
